From patent US11382889B2, “NRF2 activators for the prevention and/or treatment of axonal degeneration” (priority 2018, dated 2022) come the findings set out here.

Structures can show the parent of a compound that is named as a salt.

Data set [1] can be described thus: Tolerability of dietary DMF in mice (weight, food intake, adverse events). As to conditions: DMF 100 mg/kg/day in chow. An excerpt: We used male mice of a pure C57BL/6J background. All methods employed in this study were in accordance with the Guide for the Care and Use of Laboratory Animals (Guide, 8th edition, 2011, NIH) and European (2010/63/UE) and Spanish (RD 53/2013) legislation. Experimental protocol had been approved by IDIBELL, IACUC (Institutional Animal Care and Use Committee) and regional authority (3546 DMAH, Generalitat de Catalunya, Spain). IDIBELL animal facility has been accredited by The Association for Assessment and Accreditation of Laboratory Animal Care (AAALAC, Unit 1155). Animals were housed at 22° C. on specific-pathogen free conditions, in a 12-hour light/dark cycle, and ad libitum access to food and water. Cages contained 3 to 5 animals.
DMF was mixed into AIN-76A chow from Dyets (Bethlehem, Pa., USA) to provide a dose of 100 mg/kg/day. Human equivalent dose would be 8 mg/kg/day ([…] in a typical 60 kg person). This is equivalent to the starting dose of BG-12/Tecfidera that is 120 mg twice a day for MS patients (EMA/204830/2013).
For the characterization of biochemical signs on adult X-ALD mice, 8-months-old animals were randomly assigned to one of the following dietary groups for 4 months.
Group I: wild-type (WT) mice received normal AIN-76A chow (n=12); group II: Abcd1^− mice received normal AIN-76A chow (n=12); group III: Abcd1^− mice received AIN-76A chow containing DMF (n=12). To evaluate the effect of DMF on the clinical signs of AMN-like pathology, 12-months-old animals were randomly assigned to one of the following dietary groups for 6 months. Group I: WT mice received normal AIN-76A chow (n=14); group II: Abcd1^−/Abcd2^−/− mice received normal AIN-76A chow (n=16); group III: Abcd1^−/Abcd2^−/− mice received AIN-76A chow containing DMF (n=14).

Data set [2] relates to Abcd1−/Abcd2−/− (DKO) mice spinal cord. Nature of the data set: Immunohistological analysis of axonal pathologies in Abcd1−/Abcd2−/− (DKO) mice spinal cord. As to conditions: 18 months of age, DMF 100 mg/kg in chow for 6 months. The data set is classed as in vivo. An excerpt: a-x) Immunohistological analysis of axonal pathologies performed in 18-month-old WT, Abcd1^−/Abcd2^−/− (DKO) and Abcd1^−/Abcd2^−/− mice treated with DMF (DKO+DMF) (n=5 per genotype and condition). Spinal cord immunohistological sections were processed for (a-c) Iba1, (d-f) GFAP, (g-i) Synaptophysin, (j-l) APP, (m-o) Sudan black, (p-r) 8-oxo-dG, (s-u) CYT C and (v-x) SMI-32 immunostaining. Representative images for (a, d, g, j, m, p, s, v) WT, (b, e, h, k, n, q, t, w) DKO, and (c, f, i, l, o, r, u, x) DKO+DMF are shown. Scale bars=25 μm (a-r) and […] (s-x). y) Quantification of synaptophysin and APP accumulations in spinal cord immunohistological sections of WT (n=5), DKO (n=5) and DKO+DMF (n=5) mice. z) Bar-cross and treadmill tests performed on 18-month-old WT (n=14), Abcd1^−//Abcd2^−/− (DKO) (n=16) and Abcd1^−//Abcd2^−/− mice treated with DMF (DKO+DMF) (n=14). […] Values are expressed as mean±SD (*p<0.05, **p<0.01, ***p<0.001 after one-way ANOVA test followed by Tukey's post hoc test; p<0.05, p<0.001 after non-parametric Kruskal-Wallis' test).
To address the therapeutic effect of DMF, we assessed the clinical signs of AMN in Abcd1^−/Abcd2^−/− (DKO) mice, which display increased VLCFA accumulation in the spinal cord, higher levels of oxidative damage to proteins, and a more severe AMN-like pathology with an earlier onset at 12 months of age.
For biochemical analysis, we killed the mice and stored the tissues at −80° C. after snap-freezing them in liquid nitrogen. For histological analysis, spinal cord was harvested from 18-month-old mice after perfusing them with 4% paraformaldehyde (PFA; Sigma-Aldrich, Ref. 441244) in 0.1 M phosphate buffer pH 7.4. Histological and behavioural tests were performed in a blind way with respect to the animal's genotype and for the treatment administered.
To evaluate the effect of DMF on axonal degeneration and locomotor impairment in X-ALD, Abcd1^−/Abcd2^−/− mice (DKO) were fed with chow including DMF (100 mg/kg).

Where [3] appears, read: any treatment protocol (4 or 6 months).

As to `COC(=O)/C=C/C(=O)OC` [DMF, dimethyl fumarate], in data set [1] (4 or 6 months), the “adverse events or death during treatment” value is given as “none of the mice administered with DMF experienced any adverse events or death”. For the same compound, in data set [1] (setting [3]), the “effect on food intake” value is “no effect” and the effect on weight result is listed as “no effect”. For the same compound, in data set [2] (DKO mice spinal cord), the “accumulation of APP in axons” value is “prevented the accumulation”, the “accumulation of synaptophysin in axons” value is “prevented the accumulation”, the “astrocytosis (GFAP)” value is listed as “reversed” and the “microgliosis (Iba1)” value is on record as “reversed”. In data set [2] (DKO mice spinal cord), the “mitochondrial levels (CYT C staining in motor neurons)” value is on record as “improved”, the “motor neurons health (SMI-32 staining)” value is recorded as “improved” and the “oxidative damage to DNA (8-oxo-dG staining)” value is listed as “reduced”. Further, the “myelin debris along the spinal cord (Sudan black)” value in data set [2] (DKO mice) was “halted the appearance”.
